Assay results taken from patent US11179469B2, “Transdermal absorption preparation” (Nitto Denko Corporation, priority 2017, dated 2021).

Assay: Octanol/water partition coefficient of the drug (log P1)
Format: physicochemical
Settings: base 10 logarithm
Excerpt: The octanol/water partition coefficient is the ratio of the distribution of a certain chemical substance respectively to n-octanol and water (ratio of the concentration in n-octanol phase and aqueous phase). It is used as an index showing hydrophobicity and transferability of the chemical substance, and can be measured by the flask shaking method prescribed in the Economic Development Cooperation Organization (OECD) Test Guideline 107 and the like or calculated using the calculation software (“Cache Workspace (registered trade mark)” manufactured by Fujitsu Limited) etc. and inputting the structural formula of the compound. The octanol/water partition coefficient of the polymer is calculated using the molecule structural formula in a monomer unit.

Row | SMILES | logP1 (octanol/water partition coefficient of the drug)
1 | CC(C)(C)NCC(O)c1ccccc1Cl (centres unmarked) [Tulobuterol] | 2.55
2 | CC(C)C[C@H](CN)CC(=O)O [pregabalin] | 0.89
